What follows are molecules tested on HEK293T cells stably transfected with 8XTBD luciferase reporter and pRLTK (assay: YAP Reporter Assay (8XTBD-driven firefly luciferase)). Conditions: Homo sapiens, HEK-293T; HEK293T 8XTBD luciferase reporter; 24-hr incubation with compounds; top concentration 3 μM, 10 points.
Format: cell-based
Experimental: HEK293T cells stably transfected with 8XTBD luciferase reporter and pRLTK in 384-well plates were treated with the test compounds, starting from 3 μM (final concentration in assay plate), 1:3 dilution, and 10 points in quadruplicates. Post 24-hr incubation with compounds at 37° C. and 5% CO2, cells were lysed and 8XTBD-driven firefly luciferase and control TK-driven renilla luciferase activities were measured using Promega Dual-Luciferase Reporter Assay System.
Reagents: The reagents used for this study are: DMEM: Invitrogen #11960077, Dual-Glo Luciferase Assay System: Promega-E2980, Puromycin Dihydrochloride: Invitrogen-A1113803, 384-well plate: PerkinElmer-6007480, L-GLUTAMINE: Invitrogen-25030164, Hygromycin B: Invitrogen-10687010, and Penicillin-Streptomycin: Merk-TMS-AB2-C
Media: The media used for this assay were: Culture Medium: DMEM+1 ug/mL puromycin+200 ug/mL hygromycin (with 10% FBS+1 mM L-glutamine); and Assay Medium: DMEM (with 10% FBS+1 mM L-glutamine+1×P/S).
Cell Plating: The appropriate media was warmed at 37° C. by water bath: Culture Medium, Assay Medium, 1*D-PBS, 0.05% trypsin-EDTA. The cells were trypsinized after removing all media, then washed with 1*sterile D-PBS and then with 2 ml 0.05% trypsin-EDTA. The cells were then incubated at RT for one minute. Then 10 ml/75 cm2 flask Assay Medium was added to each flask. Using a 10 ml pipette, the cells were then gently resuspended in the media, until the clumps completely disappeared. The cells were then transferred into 50 ml centrifuge tubes and were centrifuged at 800 rpm for 5 mins. The medium was removed and the cells were resuspended with Assay Medium. An aliquot of cells was used to count the cell density (cells/ml). The cell suspension was then diluted with Assay Medium to a concentration of 6×10^4 cells/ml. 50 ul cells suspension was then plated to 384-well plate (PerkinElmer-6007480), 3×10^3 cells/well and the cells were incubated in an incubator at 37° C., 5% CO2.
Compound Treatment: In the afternoon (incubation of the plate with 3-4 hrs), the test compounds were added by Echo, starting from 3 uM (final concentration in the assay plate), 1:3 dilution, 10 points, quadruplicates. The plate was placed at 37° C., 5% CO2 incubator for 24 hrs.
Detection: The Dual-Glo Luciferase Reagent was prepared by transferring the contents of one bottle of Dual-Glo Luciferase Buffer to one bottle of Dual-Glo Luciferase Substrate to create the Dual-Glo Luciferase Reagent. Mixing was performed by inversion until the substrate was thoroughly dissolved. After mixing, the reagent was aliquoted into 15 ml tubes. In the afternoon (24 hrs post compound treatment), the DMEM+medium in the 384 well plates were aspirated by Microplate Washer.
Measuring firefly luciferase activity: 20 ul Dual-Glo Luciferase Reagent was added to the 384-well plates. The plates were protected from light to prevent interference with the assay. The plates were shaken for 1 min followed centrifuging plates at 1000 rpm for 30 seconds. After waiting at least 10 minutes, the firefly luminescence was measured by Envision.
Measuring renilla luciferase activity: 20 ul Stop-Glo Reagent was added to the 384-well plates. The plates were shaken for 1 min and then centrifuged at 1000 rpm for 30 seconds. After waiting at least 10 minutes, the renilla luminescence was measured by Envision.
Compound IC50 and maximum inhibition on the firefly luciferase and renilla luciferase activities were reported separately.
For `CN(C#N)CCc1nnc(-c2nccnc2Nc2ccc(C(F)(F)F)cc2)o1` [Compound 1, methyl-[2-[5-[3-[4-(trifluoromethyl)anilino]pyrazin-2-yl]-1,3,4-oxadiazol-2-yl]ethyl]cyanamide], the IC50 was at most 100 nM.
Work on `CCN(C#N)CCc1nnc(-c2nccnc2Nc2ccc(C(F)(F)F)cc2)o1` [Compound 2, ethyl-[2-[5-[3-[4-(trifluoromethyl)anilino]pyrazin-2-yl]-1,3,4-oxadiazol-2-yl]ethyl]cyanamide] yielded an IC50 of at most 100 nM.
Work on `CCN(C#N)Cc1nnc(-c2cccnc2Nc2ccc(C(F)(F)F)cc2)o1` [Compound 5, ethyl-[[5-[2-[4-(trifluoromethyl)anilino]-3-pyridyl]-1,3,4-oxadiazol-2-yl]methyl]cyanamide] yielded an IC50 of at most 100 nM.
`CN(C#N)Cc1nnc(-c2cccnc2Nc2ccc(C(F)(F)F)cc2)o1` [Compound 6, methyl-[[5-[2-[4-(trifluoromethyl)anilino]-3-pyridyl]-1,3,4-oxadiazol-2-yl]methyl]cyanamide] was tested, and the IC50 was at most 100 nM.
`CCN(Cc1nnc(-c2cccnc2Nc2ccc(C(F)(F)F)cc2)o1)C(=O)OC(C)(C)C` [Compound 8, tert-butyl N-ethyl-N-[[5-[2-[4-(trifluoromethyl)anilino]-3-pyridyl]-1,3,4-oxadiazol-2-yl]methyl]carbamate] gave an IC50 of 1000 to 3000 nM.
`CNCc1nnc(-c2cccnc2Nc2ccc(C(F)(F)F)cc2)o1` [Compound 9, 3-[5-(methylaminomethyl)-1,3,4-oxadiazol-2-yl]-N-[4-(trifluoromethyl)phenyl]pyridin-2-amine] gave an IC50 of 100 to 1000 nM.
`C[C@]1(c2nnc(-c3cccnc3Nc3ccc(C(F)(F)F)cc3)o2)CCNC1=O` [Compound 12, (R)-3-methyl-3-(5-(2-((4-(trifluoromethyl)phenyl)amino)pyridin-3-yl)-1,3,4-oxadiazol-2-yl)pyrrolidin-2-one] gave an IC50 of at most 100 nM.
`C[C@@]1(c2nnc(-c3cccnc3Nc3ccc(C(F)(F)F)cc3)o2)CCNC1=O` [Compound 13, (S)-3-methyl-3-(5-(2-((4-(trifluoromethyl)phenyl)amino)pyridin-3-yl)-1,3,4-oxadiazol-2-yl)pyrrolidin-2-one] was tested, and the IC50 was at most 100 nM.
In the case of `CCN(C#N)CCc1nnc(-c2cccnc2Nc2ccc(C(F)(F)F)cc2)o1` [Compound 15, ethyl-[2-[5-[2-[4-(trifluoromethyl)anilino]-3-pyridyl]-1,3,4-oxadiazol-2-yl]ethyl]cyanamide], the IC50 is reported as at most 100 nM.
Work on `CN(C#N)CCc1nnc(-c2cccnc2Nc2ccc(C(F)(F)F)cc2)o1` [Compound 16, methyl-[2-[5-[2-[4-(trifluoromethyl)anilino]-3-pyridyl]-1,3,4-oxadiazol-2-yl]ethyl]cyanamide] yielded an IC50 of at most 100 nM.
`CC1(c2nnc(-c3cccnc3Nc3ccc(C(F)(F)F)cc3)o2)CCNC1=O` (stereo not shown) [Compound 19, 3-methyl-3-(5-(2-((4-(trifluoromethyl)phenyl)amino)pyridin-3-yl)-1,3,4-oxadiazol-2-yl)pyrrolidin-2-one] gave an IC50 of at most 100 nM.
In the case of `CC1(c2nnc(-c3nccnc3Nc3ccc(C(F)(F)F)cc3)o2)CCNC1=O` (stereo not shown) [Compound 20, 3-methyl-3-{5-[3-(4-trifluoromethyl-phenylamino)-pyrazin-2-yl]-[1,3,4]oxadiazol-2-yl}-pyrrolidin-2-one], the IC50 is reported as at most 100 nM.
`CC[C@@]1(c2nnc(-c3cccnc3Nc3ccc(S(F)(F)(F)(F)F)cc3)o2)CCCNC1=O` [Compound 21, (3S)-3-ethyl-3-[5-[2-[4-(pentafluoro-λ6-sulfanyl)anilino]-3-pyridyl]-1,3,4-oxadiazol-2-yl]piperidin-2-one] showed an IC50 of at most 100 nM.
With `CC[C@]1(c2nnc(-c3cccnc3Nc3ccc(S(F)(F)(F)(F)F)cc3)o2)CCCNC1=O` [Compound 22, (3R)-3-ethyl-3-[5-[2-[4-(pentafluoro-λ6-sulfanyl)anilino]-3-pyridyl]-1,3,4-oxadiazol-2-yl]piperidin-2-one] the IC50 was 100 to 1000 nM.
For `CC[C@]1(c2nnc(-c3cccnc3Nc3ccc(S(F)(F)(F)(F)F)cc3)o2)CCNC1=O` [Compound 23, (3R)-3-ethyl-3-[5-[2-[4-(pentafluoro-λ^6-sulfanyl)anilino]-3-pyridyl]-1,3,4-oxadiazol-2-yl]pyrrolidin-2-one], the IC50 was 100 to 1000 nM.
Work on `CC[C@@]1(c2nnc(-c3cccnc3Nc3ccc(S(F)(F)(F)(F)F)cc3)o2)CCNC1=O` [Compound 24, (3S)-3-ethyl-3-[5-[2-[4-(pentafluoro-λ^6-sulfanyl)anilino]-3-pyridyl]-1,3,4-oxadiazol-2-yl]pyrrolidin-2-one] yielded an IC50 of at most 100 nM.
With `CN1CCNC(=O)C1(C)c1nnc(-c2cccnc2Nc2ccc(C(F)(F)F)cc2)o1` (stereo not shown) [Compound 25, 3,4-dimethyl-3-[5-[2-[4-(trifluoromethyl)anilino]-3-pyridyl]-1,3,4-oxadiazol-2-yl]piperazin-2-one] the IC50 was 100 to 1000 nM.
`CC1(c2nnc(-c3cccnc3Nc3ccc(C(F)(F)F)cc3)o2)NCCNC1=O` (stereo not shown) [Compound 26, 3-methyl-3-[5-[2-[4-(trifluoromethyl)anilino]-3-pyridyl]-1,3,4-oxadiazol-2-yl]piperazin-2-one] was tested, and the IC50 was at most 100 nM.
With `C[C@@]1(n2nnc(-c3cccnc3Nc3ccc(S(F)(F)(F)(F)F)cc3)n2)CCNC1=O` [Compound 27, (3R)-3-methyl-3-[5-[2-[4-(pentafluoro-λ^6-sulfanyl)anilino]-3-pyridyl]tetrazol-2-yl]pyrrolidin-2-one] the IC50 was 100 to 1000 nM.
`C[C@]1(n2nnc(-c3cccnc3Nc3ccc(S(F)(F)(F)(F)F)cc3)n2)CCNC1=O` [Compound 28, (3S)-3-methyl-3-[5-[2-[4-(pentafluoro-λ^6-sulfanyl)anilino]-3-pyridyl]tetrazol-2-yl]pyrrolidin-2-one] gave an IC50 of at most 100 nM.
With `C[C@]1(c2nnc(-c3cccnc3Nc3ccc(S(F)(F)(F)(F)F)cc3)o2)CCCNC1=O` [Compound 29, (3R)-3-methyl-3-[5-[2-[4-(pentafluoro-λ^6-sulfanyl)anilino]-3-pyridyl]-1,3,4-oxadiazol-2-yl]piperidin-2-one] the IC50 was at most 100 nM.
With `C[C@@]1(c2nnc(-c3cccnc3Nc3ccc(S(F)(F)(F)(F)F)cc3)o2)CCCNC1=O` [Compound 30, (3S)-3-methyl-3-[5-[2-[4-(pentafluoro-λ^6-sulfanyl)anilino]-3-pyridyl]-1,3,4-oxadiazol-2-yl]piperidin-2-one] the IC50 was 100 to 1000 nM.
`CC[C@@]1(c2nnc(-c3cccnc3Nc3ccc(C(F)(F)F)cc3)o2)CCCNC1=O` [Compound 31, (3S)-3-ethyl-3-[5-[2-[4-(trifluoromethyl)anilino]-3-pyridyl]-1,3,4-oxadiazol-2-yl]piperidin-2-one] showed an IC50 of 100 to 1000 nM.
Molecule `CC[C@]1(c2nnc(-c3cccnc3Nc3ccc(C(F)(F)F)cc3)o2)CCCNC1=O` [Compound 32, (3R)-3-ethyl-3-[5-[2-[4-(trifluoromethyl)anilino]-3-pyridyl]-1,3,4-oxadiazol-2-yl]piperidin-2-one] has an IC50 of at most 100 nM.
Work on `CC[C@]1(c2nnc(-c3cccnc3Nc3ccc(C(F)(F)F)cc3)o2)CCNC1=O` [Compound 33, (3R)-3-ethyl-3-[5-[2-[4-(trifluoromethyl)anilino]-3-pyridyl]-1,3,4-oxadiazol-2-yl]pyrrolidin-2-one] yielded an IC50 of at most 100 nM.
For `CC[C@@]1(c2nnc(-c3cccnc3Nc3ccc(C(F)(F)F)cc3)o2)CCNC1=O` [Compound 34, (3S)-3-Ethyl-3-[5-[2-[4-(trifluoromethyl)anilino]-3-pyridyl]-1,3,4-oxadiazol-2-yl]pyrrolidin-2-one], the IC50 was at most 100 nM.
In the case of `C[C@]1(c2nnc(-c3cccnc3Nc3ccc(S(F)(F)(F)(F)F)cc3)o2)CCNC1=O` [Compound 35, (3R)-3-methyl-3-[5-[2-[4-(pentafluoro-λ^6-sulfanyl)anilino]-3-pyridyl]-1,3,4-oxadiazol-2-yl]pyrrolidin-2-one], the IC50 is reported as 100 to 1000 nM.
In the case of `C[C@@]1(c2nnc(-c3cccnc3Nc3ccc(S(F)(F)(F)(F)F)cc3)o2)CCNC1=O` [Compound 36, (3S)-3-methyl-3-[5-[2-[4-(pentafluoro-λ^6-sulfanyl)anilino]-3-pyridyl]-1,3,4-oxadiazol-2-yl]pyrrolidin-2-one], the IC50 is reported as at most 100 nM.

From patent US20230106583A1, “HETEROARYL COMPOUNDS” (Vivace Therapeutics, Inc., priority 2019, published 2023)
